Molecules are shown by their SMILES. Like-named read-outs stand apart in the source and are kept apart here.

Consider 22 compounds from US20160214974A1 (SYNGENTA PARTICIPATIONS AG, priority 2013, published 2016).

The test system of data set [1] is Myzus persicae (Green Peach Aphid). The data set can be described thus: Activity against Myzus persicae, pea seedlings with roots in test solution (Example B2). In kind it is in vivo. Conditions: 144 h, read-out: control of Myzus persicae (mortality). From the text:
(§1) Activity Against Myzus persicae (Green Peach Aphid)
Pea seedlings, infested with an aphid population of mixed ages, were placed with the roots directly in the test solutions at an application rate of 24 ppm. 6 days after introduction, samples were checked for mortality.

Data set [2] shares this test system. The data set can be described thus: Activity against Myzus persicae, sunflower leaf discs sprayed (Example B1). To be noted: foliar, 144 h, read-out: control of Myzus persicae (mortality). The class given is in vivo. How it is done:
as §1
Sunflower leaf discs were placed on agar in a 24-well microtiter plate and sprayed with the test solutions at an application rate of 200 ppm. After drying, the leaf discs were infested with an aphid population of mixed ages. After an incubation period of 6 days, samples were checked for mortality.

The test system of data set [3] is Bemisia tabaci (Cotton White Fly). Briefly: Activity against Bemisia tabaci, cotton leaf discs sprayed (Example B3). The class given is in vivo. Conditions: foliar, 144 h, read-out: control of Bemisia tabaci (mortality). As to the method:
Activity Against Bemisia tabaci (Cotton White Fly)
Cotton leaf discs were placed on agar in a 24-well microtiter plate and sprayed with test solutions at an application rate of 200 ppm. After drying, the leaf discs were infested with 12 to 18 adults. After an incubation period of 6 days after infestation, samples were checked for mortality.

Data set [4] relates to Q-biotype strain of Bemisia tabaci (Neonicotinoid resistant). The data set can be described thus: Control of neonicotinoid and pyrethroid resistant tobacco whitefly (Example B4 b). In kind it is in vivo. Conditions: 72 h, read-out: control of the Q-biotype (Neonicotinoid resistant) strain of Bemisia tabaci.
Setting [5] is: sunflower leaf discs sprayed at 200 ppm, mixed age aphids, 6 days.
Where [6] appears, read: cotton leaf discs sprayed at 200 ppm, adults, 6 days.

For `NC(=S)[C@@]1(c2cncc(I)c2)C[C@H]2C=C[C@@H](C1)N2CC(F)F` [E.039, (1 S,5R)-8-(2,2-difluoroethyl)-3-(5-iodo-3-pyridyl)-8-azabicyclo[3.2.1]oct-6-ene-3-carbothioamide], the mortality at 24 ppm in data set [1] is at least 80%. In addition, the mortality at 200 ppm in data set [2] and in data set [3] was at least 80% each time. For the same compound, the pest or weed control at 200 ppm in data set [4] (200 ppm) is at least 80%.
Turning to `C=C(Cl)CN1[C@@H]2C=C[C@H]1C[C@](C(N)=S)(c1cncc(Br)c1)C2` [E.013, (1R,5S)-3-(5-bromo-3-pyridyl)-8-(2-chloroallyl)-8-azabicyclo[3.2.1]oct-6-ene-3-carbothioamide], the mortality at 200 ppm in data set [2] and in data set [3] was at least 80% each time. The pest or weed control at 200 ppm in data set [4] (200 ppm) is at least 80%.
For `NC(=S)[C@@]1(c2cncc(Br)c2)C[C@H]2CC[C@@H](C1)N2CC(F)(F)F` [E.007, (1S,5R)-3-(5-bromo-3-pyridyl)-8-(2,2,2-trifluoroethyl)-8-azabicyclo[3.2.1]octane-3-carbothioamide], the mortality at 200 ppm in data set [2] and in data set [3] was at least 80% in each case.
Take `C=C(Cl)CN1[C@@H]2C=C[C@H]1C[C@](C(N)=S)(c1cncc(C#N)c1)C2` [E.012, (1 S,5R)-8-(2-chloroallyl)-3-(5-cyano-3-pyridyl)-8-azabicyclo[3.2.1]oct-6-ene-3-carbothioamide]: the mortality at 24 ppm in data set [1] is at least 80%. Moreover, the pest or weed control at 200 ppm in data set [4] (200 ppm) is at least 80%.
For the compound `C#Cc1cncc([C@]2(C(N)=S)C[C@H]3C=C[C@@H](C2)N3CC(F)(F)F)c1` [E.070, (1R,5S)-3-(5-ethynyl-3-pyridyl)-8-(2,2,2-trifluoroethyl)-8-azabicyclo[3.2.1]oct-6-ene-3-carbothioamide], in data set [2] (setting [5]), the mortality at 200 ppm was at least 80%.
On to `NC(=S)[C@@]1(c2cncc(F)c2)C[C@H]2C=C[C@@H](C1)N2CC(F)F` [E.071, (1R,5S)-8-(2,2-difluoroethyl)-3-(5-fluoro-3-pyridyl)-8-azabicyclo[3.2.1]oct-6-ene-3-carbothioamide], for which the mortality at 24 ppm in data set [1] is at least 80%. The mortality at 200 ppm in data set [2] and in data set [3] was at least 80% in each case. In data set [4] (200 ppm), the pest or weed control at 200 ppm is at least 80%.
On to `NC(=S)[C@@]1(c2cncc(Br)c2)C[C@H]2C=C[C@@H](C1)N2CCCC(F)(F)F` [E.008, (1R,5S)-3-(5-bromo-3-pyridyl)-8-(4,4,4-trifluorobutyl)-8-azabicyclo[3.2.1]oct-6-ene-3-carbothioamide], for which the mortality at 24 ppm in data set [1] was at least 80%. The mortality at 200 ppm in data set [2] and in data set [3] was at least 80% in each case. Also, the pest or weed control at 200 ppm in data set [4] (200 ppm) is at least 80%.
With `NC(=S)[C@@]1(c2cncc(Cl)c2)C[C@H]2C=C[C@@H](C1)N2CC(F)F` [E.001, (1R,5S)-3-(5-chloro-3-pyridyl)-8-(2,2-difluoroethyl)-8-azabicyclo[3.2.1]oct-6-ene-3-carbothioamide], the mortality at 24 ppm in data set [1] was at least 80%. Besides, the mortality at 200 ppm in data set [2] and in data set [3] was at least 80% each time. In addition, the pest or weed control at 200 ppm in data set [4] (200 ppm) is at least 80%.
On to `NC(=S)[C@@]1(c2cncc(Br)c2)C[C@H]2C=C[C@@H](C1)N2` [E.015, (1S,5R)-3-(5-bromo-3-pyridyl)-8-azabicyclo[3.2.1]oct-6-ene-3-carbothioamide], for which the mortality at 200 ppm in data set [2] (setting [5]) and in data set [3] (setting [6]) was at least 80% throughout.
Take `N#Cc1cncc([C@]2(C(N)=S)C[C@H]3CC[C@@H](C2)N3CC(F)(F)F)c1` [E.009, (1S,5R)-3-(5-cyano-3-pyridyl)-8-(2,2,2-trifluoroethyl)-8-azabicyclo[3.2.1]octane-3-carbothioamide]: the mortality at 200 ppm in data set [2] and in data set [3] was at least 80% in each case. The pest or weed control at 200 ppm in data set [4] is at least 80%.
`O=[N+]([O-])NC1=NCCN1Cc1ccc(Cl)nc1` [Imidacloprid, reference compound]: the pest or weed control at 200 ppm in data set [4] was below 80%.
Regarding `NC(=S)[C@@]1(c2cncc(I)c2)C[C@H]2C=C[C@@H](C1)N2CC(F)(F)F` [E.060, (1R,5S)-3-(5-iodo-3-pyridyl)-8-(2,2,2-trifluoroethyl)-8-azabicyclo[3.2.1]oct-6-ene-3-carbothioamide], the mortality at 200 ppm in data set [2] (setting [5]) and in data set [3] (setting [6]) was at least 80% in each case.
Regarding `NC(=S)[C@@]1(c2cncc(I)c2)C[C@H]2CC[C@@H](C1)N2CC(F)F` [E.072, (1 S,5R)-8-(2,2-difluoroethyl)-3-(5-iodo-3-pyridyl)-8-azabicyclo[3.2.1]octane-3-carbothioamide], the mortality at 24 ppm in data set [1] was at least 80%. The mortality at 200 ppm in data set [2] and in data set [3] was at least 80% in each case. Also, the pest or weed control at 200 ppm in data set [4] was at least 80%.
`NC(=S)[C@@]1(c2cncc(I)c2)C[C@H]2C=C[C@@H](C1)N2` [E.034, (1S,5R)-3-(5-iodo-3-pyridyl)-8-azabicyclo[3.2.1]oct-6-ene-3-carbothioamide]: the mortality at 200 ppm in data set [2] (setting [5]) and in data set [3] (setting [6]) was at least 80% in each case.
For `NC(=S)[C@@]1(c2cncc(Br)c2)C[C@H]2CC[C@@H](C1)N2` [E.010, (1R,5S)-3-(5-bromo-3-pyridyl)-8-azabicyclo[3.2.1]octane-3-carbothioamide], in data set [1] (pea seedlings, roots in test solution at 24 ppm, 6 days), the mortality at 24 ppm was at least 80%. The mortality at 200 ppm in data set [2] (setting [5]) and in data set [3] (setting [6]) was at least 80% throughout.
As for `NC(=S)[C@@]1(c2cncc(C3CC3)c2)C[C@H]2CC[C@@H](C1)N2CC(F)(F)F` [E.023], the mortality at 200 ppm in data set [2] (setting [5]) was at least 80%.
Turning to `NC(=S)[C@@]1(c2cncc(Cl)c2)C[C@H]2CC[C@@H](C1)N2CC(F)(F)F` [E.002, (1S,5R)-3-(5-chloro-3-pyridyl)-8-(2,2,2-trifluoroethyl)-8-azabicyclo[3.2.1]octane-3-carbothioamide], the mortality at 200 ppm in data set [2] and in data set [3] was at least 80% in each case. Also, the pest or weed control at 200 ppm in data set [4] was at least 80%.
In the case of `N#C/N=C1\SCCN1Cc1ccc(Cl)nc1` [Thiacloprid, reference compound], in data set [4], the pest or weed control at 200 ppm is below 80%.
On to `C=CCN1[C@@H]2C=C[C@H]1C[C@](C(N)=S)(c1cncc(I)c1)C2` [E.063, (1R,5S)-8-allyl-3-(5-iodo-3-pyridyl)-8-azabicyclo[3.2.1]oct-6-ene-3-carbothioamide], for which the mortality at 24 ppm in data set [1] is at least 80%. In addition, the mortality at 200 ppm in data set [2] and in data set [3] was at least 80% in each case. Besides, the pest or weed control at 200 ppm in data set [4] (200 ppm) is at least 80%.
With `C[Si](C)(C)C#Cc1cncc([C@]2(C(N)=S)C[C@H]3C=C[C@@H](C2)N3CC(F)(F)F)c1` [E.068, (1R,5S)-8-(2,2,2-trifluoroethyl)-3-[5-(2-trimethylsilylethynyl)-3-pyridyl]-8-azabicyclo[3.2.1]oct-6-ene-3-carbothioamide], the mortality at 200 ppm in data set [2] (setting [5]) was at least 80%.
The compound `CC(C)(C)OC(=O)N1[C@@H]2CC[C@H]1C[C@](C(N)=S)(c1cncc(Br)c1)C2` came in with a melting point of 228 to 230 °C.
Take `C=C(Cl)CN1[C@@H]2CC[C@H]1C[C@](C(N)=S)(c1cncc(Br)c1)C2` [E.006, (1S,5R)-3-(5-bromo-3-pyridyl)-8-(2-chloroallyl)-8-azabicyclo[3.2.1]octane-3-carbothioamide]: the mortality at 24 ppm in data set [1] was at least 80%. Further, the mortality at 200 ppm in data set [2] and in data set [3] was at least 80% each time. For the same compound, the pest or weed control at 200 ppm in data set [4] is at least 80%.
